# From patent US8258096B2, “Therapy procedure for drug delivery for trigeminal pain” (The Board of Trustees of the Leland Stanford Junior …, priority 2005, dated 2012)
# What was measured:
# Format in all cases: in vivo
# [1] = tested on: single pain sensing nerve cells in the trigeminal ganglion; experiment: Nerve impulses of single trigeminal ganglion neurons in response to noxious laser pulses to the face; settings: rat, 10 nmoles applied to the nose, FIG. 2
# Method: Sprague-Dawley rats (Charles River Laboratories) were anesthetized with isofluorane and a platinum electrode was inserted transcranially into the trigeminal ganglion. Nerve impulses (action potential) were recorded from single pain sensing nerve cells in the trigeminal ganglion in response to application of noxious laser pulses to the face of the rats. After recording responses to several identical laser pulses, 10 nmoles of oxytocin was applied to the nose of the rats. Thereafter, identical laser pulses were once again applied and recorded.
# [2] = tested on: trigeminal nucleus caudalis wide dynamic range (WDR) neurons; experiment: Electrical stimulation-induced responses of trigeminal nucleus caudalis WDR neurons; settings: rat
# Method: Male Sprague-Dawley rats (Charles River Laboratories) were anesthetized with isoflurane and used in the following experiments. In the anesthetized rats, single unit, extracellular recordings were performed in trigeminal nucleus caudalis while stimulating the ipsilateral facial skin with constant-current bipolar electrical stimulation. Epoxylate-insulated, tungsten microelectrodes (10 MOhm) were used under stereotaxic coordinate control.
# Shown are responses (action potentials per 30 stimuli) to repeated stimulation of a rat's face before oxytocin administration (pre-oxytocin). After administration with oxytocin at approximately 0.1 IU, responses were recorded every five minutes for 65 minutes. A second administration of oxytocin at the same dosage was administered at approximately 70 minutes after the first dose. The approximate site of the administration of the electrical stimulation is indicated by the black spot on a map of the rat's face (FIG. 3B).
# [3] = tested on: trigeminal nucleus caudalis wide dynamic range (WDR) neurons; experiment: Long-pulse laser-induced responses of trigeminal nucleus caudalis WDR neurons; settings: rat, intranasal 0.025 ml of 0.05 mg/ml
# Method: Male Sprague-Dawley rats (Charles River Laboratories) were anesthetized with isoflurane and used in the following experiments. In the anesthetized rats, single unit, extracellular recordings were performed in trigeminal nucleus caudalis while stimulating the ipsilateral facial skin with diode laser or constant-current bipolar electrical stimulation. Epoxylate-insulated, tungsten microelectrodes (10 MOhm) were used under stereotaxic coordinate control. […] Shown are responses (action potentials per second) to an 8 second-duration, 425 mA intensity laser stimulus to the site indicated by the black spot on a map of the rat's face (FIG. 4E).
# [4] = tested on: second-order neurons in the trigeminal nucleus caudalis; experiment: Electrical stimulus-induced windup; settings: rat, intranasal 0.025 ml of 0.05 mg/ml
# Text: Male Sprague-Dawley rats (Charles River Laboratories) were anesthetized with isoflurane and used in the following experiments. […] Needle electrodes were inserted subcutaneously at the site indicated in FIG. 5A by the black spot on the rat's head, and the skin was stimulated at 0.66 Hz, 2 msec duration, 3×C-fiber threshold for >25 times.
# Sprague-Dawley rats = experiment: Withdrawal latencies after noxious laser thermal stimulation of ears or hindpaws after intranasal administration; settings: rat, intranasal 10 nmoles/kg, tested from five minutes after final application
# Text: One way to test activity of an analgesic agent in a rat model is by treatment-induced changes in latencies (times) of withdrawal in response to noxious heating of the skin, typically using an ear, the face or a hindpaw. Thus, application of coherent or non-coherent (non-laser) radiant heat to the ear, the face or hindpaw will elicit rapid withdrawal movements. […] Transmucosal or transdermal administration of analgesic agents to the trigeminal nerve to reduce trigeminal nerve-associated pain can be tested for regional and/or systemic analgesia. The rostral external part of a rat's ear is innervated by a branch of the mandibular nerve, itself a branch of the trigeminal nerve, thus after treatment an increase in latency to withdrawal time would indicate regional analgesia. […]
# Sprague-Dawley rats (Charles River Laboratories) were lightly anesthetized with urethane and placed with minimal restraint on a heating pad to maintain their body temperature at 37° C. […] Baseline withdrawal latencies were measured by delivering 4 separate stimuli with a resting period of approximately 15 minutes between each stimulus. […] As described above, testing sessions were videotaped and analyzed.
# [5] = intranasal approximately 0.1 IU, first dose
# [6] = second intranasal dose approximately 0.1 IU at approximately 70 minutes after the first
compound,measurement,setting,value
"CC[C@H](C)[C@@H]1NC(=O)[C@H](Cc2ccc(O)cc2)NC(=O)[C@@H](N)CSSC[C@@H](C(=O)N2CCC[C@H]2C(=O)N[C@@H](CC(C)C)C(=O)NCC(N)=O)NC(=O)[C@H](CC(N)=O)NC(=O)[C@H](CCC(N)=O)NC1=O [Oxytocin, Cys-Tyr-Ile-Gln-Asn-Cys-Pro-Leu-Gly]","neuronal response (average nerve impulses per laser pulse), post- vs pre-treatment",[1],significantly (p<0.05) reduced
same,responses (action potentials per 30 stimuli) after first administration,"[2]; intranasal approximately 0.1 IU, electrical stimulation of face, FIG. 3A",significant reduction in responses
same,time after first administration at which reduction in responses began,[2]; [5],10 min
same,time post treatment until which reduction continued (responses then began to increase),[2]; [5],50 min
same,responses (action potentials per 30 stimuli) after second administration,[2]; [6],significant reduction in responses
same,time to reduction in responses after second administration,[2]; [6],≤ 10 min
C[C@@H](O)[C@@H]1NC(=O)[C@H](CCCCN)NC(=O)[C@@H](Cc2c[nH]c3ccccc23)NC(=O)[C@H](Cc2ccccc2)NC(=O)[C@@H](NC(=O)[C@H](N)Cc2ccccc2)CSSC[C@@H](C(=O)N[C@H](CO)[C@@H](C)O)NC1=O [octreotide],response five minutes post-treatment,"[3]; 8 second 425 mA laser stimulus, 5 minutes, FIG. 4B",no detectable reduction in response
same,response at 10 minutes post-treatment,"[3]; 8 second 425 mA laser stimulus, 10 minutes, baseline 42 spikes",5 spikes
same,reduction of response at 10 minutes post-treatment,[3]; 10 minutes vs pre-treatment baseline,88%
same,response 25 minutes post-treatment,"[3]; 25 minutes, FIG. 4D",recovered
same,reduction of total number of action potentials,[4]; 10 minutes after administration vs before,19.4%
same,total number of action potentials during the stimulation period,"[4]; 10 minutes after administration, 25 stimulations at 0.66 Hz, 506 before treatment",408
Tyr-Gly-Gly-Phe-Met [met-enkephalin],regional analgesic effect (ear withdrawal latency),"Sprague-Dawley rats; laser to ears, FIG. 1A",achieved a regional analgesic effect in the head region
same,systemic analgesic effect (hindpaw withdrawal latency),"Sprague-Dawley rats; laser to hindpaws, FIG. 1B",without a systemic analgesic effect at the hindpaw
